14 compounds from patent US20260317324A1, “BIFUNCTIONAL COMPOUNDS FOR DEGRADING BRAF VIA UBIQUITIN PROTEOSOME PATHWAY” (Nurix Therapeutics, Inc., priority 2023, published 2026) can be followed below.

Structures are written as SMILES.

The target in this experiment is T1, BRAF V600E (Homo sapiens, UniProt P15056, V600E).
T1 construct: endogenous C-terminal HiBiT fusion tag on BRAF V600E allele; endogenous in cells; host or cells: A375 clone 1F10 (CRISPR-Cas9 knock-in of the HiBiT tag; parental A375 from ATCC)
Put plainly: BRAF HiBiT degradation assay, C-terminal HiBiT-tagged BRAF V600E A375 cells (clone 1F10), Nano-Glo HiBiT Lytic assay. To be noted: for Dmax: A-375. The class given is cell-based. An outline of the steps:
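Degradation is measured as loss of HiBiT signal from BRAF V600E tagged at its native locus in A375 cells. Doses span 1 μM to 0.01 nM in half-log steps, in duplicate. Percent remaining is calculated against DMSO controls after subtracting untagged A375 background, and curve fitting yields DC50 and observed Dmax.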

The mark [1] stands for this setting: A375 (BRAF V600E), DC50 at 50%: fitted conc. at Y=50.
The mark [2] stands for this setting: A375 (BRAF V600E), percentage protein degraded at maximal compound effect relative to DMSO.

T1 sequence (P15056 whole entry V600E, the tested form may be a part): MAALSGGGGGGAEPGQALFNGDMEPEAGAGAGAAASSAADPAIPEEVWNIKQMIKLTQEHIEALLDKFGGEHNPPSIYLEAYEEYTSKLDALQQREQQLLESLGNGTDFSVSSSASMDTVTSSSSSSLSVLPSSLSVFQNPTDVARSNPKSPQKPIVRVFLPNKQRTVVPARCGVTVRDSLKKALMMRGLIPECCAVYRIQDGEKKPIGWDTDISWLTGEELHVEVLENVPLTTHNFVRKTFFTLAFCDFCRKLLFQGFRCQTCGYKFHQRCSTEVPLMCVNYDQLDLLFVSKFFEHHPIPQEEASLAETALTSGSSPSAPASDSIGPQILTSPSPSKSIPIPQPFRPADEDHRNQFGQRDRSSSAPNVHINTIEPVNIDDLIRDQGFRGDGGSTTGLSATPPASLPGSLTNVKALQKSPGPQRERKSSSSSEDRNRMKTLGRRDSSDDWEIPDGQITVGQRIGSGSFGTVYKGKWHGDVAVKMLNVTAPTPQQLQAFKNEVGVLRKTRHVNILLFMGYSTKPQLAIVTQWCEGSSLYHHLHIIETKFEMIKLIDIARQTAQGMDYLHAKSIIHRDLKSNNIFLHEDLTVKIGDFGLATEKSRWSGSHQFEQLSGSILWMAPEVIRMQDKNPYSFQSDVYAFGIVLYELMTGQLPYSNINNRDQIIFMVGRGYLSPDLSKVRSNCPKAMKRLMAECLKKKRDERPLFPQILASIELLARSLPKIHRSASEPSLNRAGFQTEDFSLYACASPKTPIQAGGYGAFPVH

Turning to `CCCS(=O)(=O)Nc1cccc(-c2nc(C)sc2-c2ccnc(Nc3ccc(C4CCN(CC5CCN(c6ccc([C@@H]7CCC(=O)NC7=O)cc6)CC5)CC4)cc3)n2)c1F` [Compound 64, N-[3-(5-{2-[(4-{1-[(1-{4-[(3S)-2,6-dioxopiperidin-3-yl]phenyl}piperidin-4-yl)methyl]piperidin-4-yl}phenyl)amino]pyrimidin-4-yl}-2-methyl-1,3-thiazol-4-yl)-2-fluorophenyl]propane-1-sulfonamide], the DC50 under setting [1] was 10 to 50 nM. Moreover, the maximal degradation (Dmax) under setting [2] is > 70%.

Under setting [1], `CCCS(=O)(=O)Nc1cccc(-c2nc(C(C)(C)C)sc2-c2ccnc(Nc3ccc(C4CCN(C(=O)C[C@@H]5CCN(c6ccc7c(c6)n(C)c(=O)n7C6CCC(=O)NC6=O)C5)CC4)cc3)n2)c1F` (mixture of isomers) [Compound 162, N-{3-[2-tert-butyl-5-(2-{[4-(1-{2-[(3S)-1-{1-[(3RS)-2,6-dioxopiperidin-3-yl]-3-methyl-2-oxo-2,3-dihydro-1H-1,3-benzodiazol-5-yl}pyrrolidin-3-yl]acetyl}piperidin-4-yl)phenyl]amino}pyrimidin-4-yl)-1,3-thiazol-4-yl]-2-fluorophenyl}propane-1-sulfonamide] had a DC50 of 10 to 50 nM. This compound registered a Dmax under setting [2] of 30 to 70%.

In turn, `CCCS(=O)(=O)Nc1cccc(-c2nc(C(C)(C)C)sc2-c2ccnc(Nc3ccc(C4CCN(C(=O)CC5CCN(C6CCN(c7ccc8c(c7)C(=O)N(C7CCC(=O)NC7=O)C8=O)CC6)CC5)CC4)cc3)n2)c1F` (racemic) [Compound 158, Rac-N-[3-(2-tert-butyl-5-{2-[(4-{1-[2-(1′-{2-[(3R)-2,6-dioxopiperidin-3-yl]-1,3-dioxo-2,3-dihydro-1H-isoindol-5-yl}-[1,4′-bipiperidin]-4-yl)acetyl]piperidin-4-yl}phenyl)amino]pyrimidin-4-yl}-1,3-thiazol-4-yl)-2-fluorophenyl]propane-1-sulfonamide] had a DC50 under setting [1] of 50 to 500 nM. In addition, the Dmax under setting [2] fell in the range of 30 to 70%.

Compound `CCCS(=O)(=O)Nc1cccc(-c2nc(C(C)(C)C)sc2-c2ccnc(NC3CC4(C3)CN(C(=O)C3CN(C5CCN(c6ccc7c(c6)C(=O)N(C6CCC(=O)NC6=O)C7=O)CC5)C3)C4)n2)c1F` (racemic) [Compound 154, Rac-N-(3-{2-tert-butyl-5-[2-({2-[1-(1-{2-[(3R)-2,6-dioxopiperidin-3-yl]-1,3-dioxo-2,3-dihydro-1H-isoindol-5-yl}piperidin-4-yl)azetidine-3-carbonyl]-2-azaspiro[3.3]heptan-6-yl}amino)pyrimidin-4-yl]-1,3-thiazol-4-yl}-2-fluorophenyl)propane-1-sulfonamide] had a DC50 under setting [1] of 50 to 500 nM. Besides, under setting [2], the maximal degradation (Dmax) is > 70%.

As to `CCCS(=O)(=O)Nc1cccc(-c2nc(C(C)(C)C)sc2-c2ccnc(Nc3ccc(C4CCN(C(=O)CCCC(=O)N[C@H](C(=O)N5C[C@H](O)C[C@H]5C(=O)N[C@@H](C)c5ccc(-c6scnc6C)cc5)C(C)(C)C)CC4)cc3)n2)c1F` [Compound 86, (2S,4R)-1-[(2S)-2-[5-(4-{4-[(4-{2-tert-butyl-4-[2-fluoro-3-(propane-1-sulfonamido)phenyl]-1,3-thiazol-5-yl}pyrimidin-2-yl)amino]phenyl}piperidin-1-yl)-5-oxopentanamido]-3,3-dimethylbutanoyl]-4-hydroxy-N-[(1S)-1-[4-(4-methyl-1,3-thiazol-5-yl)phenyl]ethyl]pyrrolidine-2-carboxamide], under setting [1], the half-maximal degradation concentration (DC50) is 50 to 500 nM. In addition, under setting [2], the Dmax was 30 to 70%.

Turning to `CCCS(=O)(=O)Nc1cccc(-c2nc(C3CCN(C(=O)C4CN(C5CCN(c6ccc7c(c6)C(=O)N(C6CCC(=O)NC6=O)C7=O)CC5)C4)CC3)sc2-c2ccnc(N)n2)c1F` (racemic) [Compound 242, Rac-N-{3-[5-(2-aminopyrimidin-4-yl)-2-{1-[1-(1-{2-[(3R)-2,6-dioxopiperidin-3-yl]-1,3-dioxo-2,3-dihydro-1H-isoindol-5-yl}piperidin-4-yl)azetidine-3-carbonyl]piperidin-4-yl}-1,3-thiazol-4-yl]-2-fluorophenyl}propane-1-sulfonamide], the DC50 under setting [1] was < 10 nM. The Dmax under setting [2] was > 70%.

On to `O=C1CCC(c2ccc(N3CCC(CN4CCN(c5cnc(-n6cc(-c7cc(F)cc(NS(=O)(=O)N8CCCC8)c7F)c(-c7ccncc7)n6)nc5)CC4)CC3)nc2)C(=O)N1` (racemic) [Compound 343, Rac-N-{3-[1-(5-{4-[(1-{5-[(3R)-2,6-dioxopiperidin-3-yl]pyridin-2-yl}piperidin-4-yl)methyl]piperazin-1-yl}pyrimidin-2-yl)-3-(pyridin-4-yl)-1H-pyrazol-4-yl]-2,5-difluorophenyl}pyrrolidine-1-sulfonamide], for which, where the note is “A375 (BRAF V600E, Class 1), DC50 at 50% degradation”, the DC50 was < 10 nM. The Dmax (A375 (BRAF V600E, Class 1), observed Dmax, % protein degraded relative to DMSO control) was > 70%.

For `CCCS(=O)(=O)Nc1cccc(-c2nc(C(C)(C)C)sc2-c2ccnc(Nc3cnn(CC4CCN(C(=O)CN5CCN(c6cc(C7CCC(=O)NC7=O)ccn6)CC5)CC4)c3)n2)c1F` (racemic) [Compound 113, Rac-N-{3-[2-tert-butyl-5-(2-{[1-({1-[2-(4-{4-[(3R)-2,6-dioxopiperidin-3-yl]pyridin-2-yl}piperazin-1-yl)acetyl]piperidin-4-yl}methyl)-1H-pyrazol-4-yl]amino}pyrimidin-4-yl)-1,3-thiazol-4-yl]-2-fluorophenyl}propane-1-sulfonamide], the DC50 under setting [1] fell in the range of 10 to 50 nM. Moreover, under setting [2], the Dmax was > 70%.

Under setting [1], `CCCS(=O)(=O)Nc1cccc(-c2nc(C(C)(C)C)sc2-c2ccnc(NC3CC4(CCN(CC5CCN(c6ccc([C@H]7CCC(=O)NC7=O)cc6)CC5)CC4)C3)n2)c1F` [Compound 133, N-(3-{2-tert-butyl-5-[2-({7-[(1-{4-[(3R)-2,6-dioxopiperidin-3-yl]phenyl}piperidin-4-yl)methyl]-7-azaspiro[3.5]nonan-2-yl}amino)pyrimidin-4-yl]-1,3-thiazol-4-yl}-2-fluorophenyl)propane-1-sulfonamide] registered a 50% degradation concentration (DC50) of 10 to 50 nM. Further, under setting [2], the greatest degradation seen (Dmax) was in the range of 30 to 70%.

`CCCS(=O)(=O)Nc1cccc(-c2nc(C(C)(C)C)sc2-c2ccnc(Nc3ccc(C4CCN(CC5CCN(c6ccc(C(=O)NC7CCC(=O)NC7=O)nc6)CC5)CC4)cc3)n2)c1F` (racemic) [Compound 169, Rac-5-{4-[(4-{4-[(4-{2-tert-butyl-4-[2-fluoro-3-(propane-1-sulfonamido)phenyl]-1,3-thiazol-5-yl}pyrimidin-2-yl)amino]phenyl}piperidin-1-yl)methyl]piperidin-1-yl}-N-[(3R)-2,6-dioxopiperidin-3-yl]pyridine-2-carboxamide]: the 50% degradation concentration (DC50) under setting [1] is 50 to 500 nM. Under setting [2], this compound registered a maximal degradation (Dmax) of 30 to 70%.

Under setting [1], `CCCS(=O)(=O)Nc1cccc(-c2nc(C(C)(C)C)sc2-c2ccnc(NC3CC4(C3)CN(C(=O)CC3CCN(C5CCN(c6ccc7c(c6)C(=O)N(C6CCC(=O)NC6=O)C7=O)CC5)CC3)C4)n2)c1F` (racemic) [Compound 157, Rac-N-(3-{2-tert-butyl-5-[2-({2-[2-(1′-{2-[(3R)-2,6-dioxopiperidin-3-yl]-1,3-dioxo-2,3-dihydro-1H-isoindol-5-yl}-[1,4′-bipiperidin]-4-yl)acetyl]-2-azaspiro[3.3]heptan-6-yl}amino)pyrimidin-4-yl]-1,3-thiazol-4-yl}-2-fluorophenyl)propane-1-sulfonamide] showed a DC50 of 50 to 500 nM. The compound further yielded a Dmax under setting [2] of 30 to 70%.

Regarding `CCCS(=O)(=O)Nc1cccc(-c2nc(C(C)(C)C)sc2-c2ccnc(Nc3cnn(C4CCN(C(=O)C[C@@H]5CCN(c6ccc(C7CCC(=O)NC7=O)cc6)C5)CC4)c3)n2)c1F` (mixture of isomers) [Compound 105, N-{3-[2-tert-butyl-5-(2-{[1-(1-{2-[(3S)-1-{4-[(3RS)-2,6-dioxopiperidin-3-yl]phenyl}pyrrolidin-3-yl]acetyl}piperidin-4-yl)-1H-pyrazol-4-yl]amino}pyrimidin-4-yl)-1,3-thiazol-4-yl]-2-fluorophenyl}propane-1-sulfonamide], the DC50 under setting [1] was > 500 nM. Under setting [2], this compound displayed a maximal degradation (Dmax) of 30 to 70%.

With `CCCS(=O)(=O)Nc1cccc(-c2nc(C(C)(C)C)sc2-c2ccnc(Nc3ccc4c(c3)CCN(C(=O)CN3CCN(c5cc(C6CCC(=O)NC6=O)ccn5)CC3)C4)n2)c1F` (racemic) [Compound 120, Rac-N-(3-{2-tert-butyl-5-[2-({2-[2-(4-{4-[(3R)-2,6-dioxopiperidin-3-yl]pyridin-2-yl}piperazin-1-yl)acetyl]-1,2,3,4-tetrahydroisoquinolin-6-yl}amino)pyrimidin-4-yl]-1,3-thiazol-4-yl}-2-fluorophenyl)propane-1-sulfonamide], under setting [1], the DC50 fell in the range of 50 to 500 nM. Moreover, the Dmax under setting [2] lay in the range of 30 to 70%.

The compound `CCCS(=O)(=O)Nc1cccc(-c2nc(C(C)(C)C)sc2-c2ccnc(NC3CCN(C4CCN(CC5CCN(c6ccc(C7CCC(=O)NC7=O)cn6)CC5)CC4)CC3)n2)c1F` (racemic) [Compound 136, Rac-N-(3-{2-tert-butyl-5-[2-({1′-[(1-{5-[(3R)-2,6-dioxopiperidin-3-yl]pyridin-2-yl}piperidin-4-yl)methyl]-[1,4′-bipiperidin]-4-yl}amino)pyrimidin-4-yl]-1,3-thiazol-4-yl}-2-fluorophenyl)propane-1-sulfonamide] showed a DC50 under setting [1] of 50 to 500 nM. Moreover, the Dmax under setting [2] fell in the range of 30 to 70%.
